The values below come from US20160297833A1, “THIENOPYRIMIDINES AS MKNK1 AND MKNK2 INHIBITORS” (BAYER PHARMA AKTIENGESELLSCHAFT, priority 2013, published 2016).

The structures appear in SMILES notation.

The target in the assay is T1, human full-length MKNK1 (Homo sapiens, UniProt Q9BUB5, T385D).
T1 construct: GST (N); purchased Carna Biosciences 02-145; host or cells: insect cells (baculovirus expression system)
Description: MKNK1 kinase high ATP assay (TR-FRET). Format: biochemical. Particulars: Table 1; MKNK1 kinase high ATP assay, 2 mM ATP; read-out: MKNK1 IC50. Put shortly:
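Full-length human MKNK1 (T385D) preincubated 15 min at 22 °C with compound in HEPES pH 7.5/MgCl2/DTT buffer; reaction with 2 mM ATP (final) and 0.06 μM biotinylated peptide (final), 30 min at 22 °C.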

T1 sequence (Q9BUB5 1-424 isoform Q9BUB5-2 T344D): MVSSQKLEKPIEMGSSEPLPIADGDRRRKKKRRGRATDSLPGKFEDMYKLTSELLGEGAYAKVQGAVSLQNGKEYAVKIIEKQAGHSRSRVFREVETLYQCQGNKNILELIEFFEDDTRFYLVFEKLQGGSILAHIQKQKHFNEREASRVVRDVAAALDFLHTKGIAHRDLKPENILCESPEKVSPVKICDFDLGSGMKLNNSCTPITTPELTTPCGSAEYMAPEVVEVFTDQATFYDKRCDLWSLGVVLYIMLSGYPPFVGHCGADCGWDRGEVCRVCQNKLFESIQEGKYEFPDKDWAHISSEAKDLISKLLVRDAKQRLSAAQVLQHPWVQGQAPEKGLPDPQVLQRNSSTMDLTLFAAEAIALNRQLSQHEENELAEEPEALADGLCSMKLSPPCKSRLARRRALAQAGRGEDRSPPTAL

As a reminder, the IC50 is the concentration needed to halve the response being measured. As to `COc1cc2[nH]ncc2cc1Nc1ncnc2sc3c(c12)CC[C@H](C(=O)N1CC=CC1)C3` [Example 206, 2,5-Dihydro-1H-pyrrol-1-yl{(7S)-4-[(6-methoxy-1H-indazol-5-yl)amino]-5,6,7,8-tetrahydro[1]benzothieno[2,3-d]pyrimidin-7-yl}methanone], the IC50 came out at 0.9 nM.
Regarding `COc1cc2[nH]ncc2cc1Nc1ncnc2sc3c(c12)CC[C@H](C(=O)N1CCSCC1)C3` [Example 207, {(7S)-4-[(6-methoxy-1H-indazol-5-yl)amino]-5,6,7,8-tetrahydro[1]benzothieno[2,3-d]pyrimidin-7-yl}(thiomorpholin-4-yl)methanone], the IC50 worked out at 0.2 nM.
For the compound `COc1cc2[nH]ncc2cc1Nc1ncnc2sc3c(c12)CC[C@H](C(=O)N1CCC(F)(F)C1)C3` [Example 208, (3,3-Difluoropyrrolidin-1-yl){(7S)-4-[(6-methoxy-1H-indazol-5-yl)amino]-5,6,7,8-tetrahydro[1]benzothieno[2,3-d]pyrimidin-7-yl}methanone], the IC50 came to 0.6 nM.
Next, `COc1cc2[nH]ncc2cc1Nc1ncnc2sc3c(c12)CC[C@H](C(=O)N1CC2CC2C1)C3` (stereo partly drawn) [Example 209, 3-Azabicyclo[3.1.0]hex-3-yl{(7S)-4-[(6-methoxy-1H-indazol-5-yl)amino]-5,6,7,8-tetrahydro[1]benzothieno[2,3-d]pyrimidin-7-yl}methanone]: 0.5 nM; `COc1cc2[nH]ncc2cc1Nc1ncnc2sc3c(c12)CC[C@H](C(=O)N1C[C@H](C)O[C@@H](C)C1)C3` [Example 210, [(2S,6S)-2,6-Dimethylmorpholin-4-yl]{(7S)-4-[(6-methoxy-1H-indazol-5-yl)amino]-5,6,7,8-tetrahydro[1]benzothieno[2,3-d]pyrimidin-7-yl}methanone]: 0.4 nM; `COc1cc2[nH]ncc2cc1Nc1ncnc2sc3c(c12)CC[C@H](C(=O)N1C[C@@H](C)O[C@H](C)C1)C3` [Example 211, [(2R,6R)-2,6-Dimethylmorpholin-4-yl]{(7S)-4-[(6-methoxy-1H-indazol-5-yl)amino]-5,6,7,8-tetrahydro[1]benzothieno[2,3-d]pyrimidin-7-yl}methanone]: 0.2 nM.
Next, `COc1cc2[nH]ncc2cc1Nc1ncnc2sc3c(c12)CC[C@H](C(=O)N1CCCCO1)C3` [Example 212, {(7S)-4-[(6-Methoxy-1H-indazol-5-yl)amino]-5,6,7,8-tetrahydro[1]benzothieno[2,3-d]pyrimidin-7-yl}(1,2-oxazinan-2-yl)methanone]: 0.3 nM; `COc1cc2[nH]ncc2cc1Nc1ncnc2sc3c(c12)CC[C@H](C(=O)N1CCCO1)C3` [Example 213, {(7S)-4-[(6-Methoxy-1H-indazol-5-yl)amino]-5,6,7,8-tetrahydro[1]benzothieno[2,3-d]pyrimidin-7-yl}(1,2-oxazolidin-2-yl)methanone]: 0.4 nM; `CCON(C)C(=O)[C@H]1CCc2c(sc3ncnc(Nc4cc5cn[nH]c5cc4OC)c23)C1` [Example 214, (7S)—N-Ethoxy-4-[(6-methoxy-1H-indazol-5-yl)amino]-N-methyl-5,6,7,8-tetrahydro[1]benzothieno[2,3-d]pyrimidine-7-carboxamide]: 1.2 nM.
Next, `COc1cc2[nH]ncc2cc1Nc1ncnc2sc3c(c12)CC[C@H](C(=O)N(C)CCC(C)(C)O)C3` [Example 215, (7S)—N-(3-Hydroxy-3-methylbutyl)-4-[(6-methoxy-1H-indazol-5-yl)amino]-N-methyl-5,6,7,8-tetrahydro[1]benzothieno[2,3-d]pyrimidine-7-carboxamide]: 1 nM; `COc1cc2[nH]ncc2cc1Nc1ncnc2sc3c(c12)CC[C@H](C(=O)N(C)S(C)(=O)=O)C3` [Example 216, (7S)-4-[(6-Methoxy-1H-indazol-5-yl)amino]-N-methyl-N-(methylsulfonyl)-5,6,7,8-tetrahydro[1]benzothieno[2,3-d]pyrimidine-7-carboxamide]: 0.5 nM.
As to `COCCN(C)C(=O)[C@H]1CCc2c(sc3ncnc(Nc4cc5cn[nH]c5cc4OC)c23)C1` [Example 217, (7S)—N-(2-Methoxyethyl)-4-[(6-methoxy-1H-indazol-5-yl)amino]-N-methyl-5,6,7,8-tetrahydro[1]benzothieno[2,3-d]pyrimidine-7-carboxamide], the IC50 turned out to be 0.3 nM.
`CCOc1cc2[nH]ncc2cc1Nc1ncnc2sc3c(c12)CC[C@H](C(=O)N1CC(N(C)C)C1)C3` [Example 218, [3-(Dimethylamino)azetidin-1-yl]{(7S)-4-[(6-ethoxy-1H-indazol-5-yl)amino]-5,6,7,8-tetrahydro[1]benzothieno[2,3-d]pyrimidin-7-yl}methanone]: the IC50 stood at 0.2 nM.
Then `CC(C)Oc1cc2[nH]ncc2cc1Nc1ncnc2sc3c(c12)CC[C@H](C(=O)N1CC(N(C)C)C1)C3` [Example 219, [3-(Dimethylamino)azetidin-1-yl][(7S)-4-{[6-(propan-2-yloxy)-1H-indazol-5-yl]amino}-5,6,7,8-tetrahydro[1]benzothieno[2,3-d]pyrimidin-7-yl]methanone], with 0.2 nM; and `O=C([C@H]1CCc2c(sc3ncnc(Nc4cc5cn[nH]c5cc4F)c23)C1)N1CC2CC2C1` (stereo partly drawn) [Example 220, 3-Azabicyclo[3.1.0]hex-3-yl{(7S)-4-[(6-fluoro-1H-indazol-5-yl)amino]-5,6,7,8-tetrahydro[1]benzothieno[2,3-d]pyrimidin-7-yl}methanone], with 4.3 nM.
Next, `C[C@@H]1CN(C(=O)[C@H]2CCc3c(sc4ncnc(Nc5cc6cn[nH]c6cc5F)c34)C2)C[C@H](C)O1` [Example 221, [(2R,6S)-2,6-Dimethylmorpholin-4-yl]{(7S)-4-[(6-fluoro-1H-indazol-5-yl)amino]-5,6,7,8-tetrahydro[1]benzothieno[2,3-d]pyrimidin-7-yl}methanone]: 3.8 nM.
With `COCCN(C)C(=O)[C@H]1CCc2c(sc3ncnc(Nc4cc5cn[nH]c5cc4F)c23)C1` [Example 222, (7S)-4-[(6-Fluoro-1H-indazol-5-yl)amino]-N-(2-methoxyethyl)-N-methyl-5,6,7,8-tetrahydro[1]benzothieno[2,3-d]pyrimidine-7-carboxamide], the IC50 is 3.2 nM.
Next, `C[C@@H]1COCCN1C(=O)[C@H]1CCc2c(sc3ncnc(Nc4cc5cn[nH]c5cc4F)c23)C1` [Example 223, {(7S)-4-[(6-Fluoro-1H-indazol-5-yl)amino]-5,6,7,8-tetrahydro[1]benzothieno[2,3-d]pyrimidin-7-yl}[(3R)-3-methylmorpholin-4-yl]methanone]: 8.4 nM; `C[C@@H]1CN(C(=O)[C@H]2CCc3c(sc4ncnc(Nc5cc6cn[nH]c6cc5F)c34)C2)C[C@@H](C)O1` [Example 224, [(2R,6R)-2,6-Dimethylmorpholin-4-yl]{(7S)-4-[(6-fluoro-1H-indazol-5-yl)amino]-5,6,7,8-tetrahydro[1]benzothieno[2,3-d]pyrimidin-7-yl}methanone]: 3.7 nM.
Next, `C[C@H]1CN(C(=O)[C@H]2CCc3c(sc4ncnc(Nc5cc6cn[nH]c6cc5F)c34)C2)C[C@H](C)O1` [Example 225, [(2S,6S)-2,6-Dimethylmorpholin-4-yl]{(7S)-4-[(6-fluoro-1H-indazol-5-yl)amino]-5,6,7,8-tetrahydro[1]benzothieno[2,3-d]pyrimidin-7-yl}methanone]: 8.7 nM; `O=C([C@H]1CCc2c(sc3ncnc(Nc4cc5cn[nH]c5cc4F)c23)C1)N1CCOCC1` [Example 226, {(7S)-4-[(6-Fluoro-1H-indazol-5-yl)amino]-5,6,7,8-tetrahydro[1]benzothieno[2,3-d]pyrimidin-7-yl}(morpholin-4-yl)methanone]: 7.8 nM.
Next, `C[C@H]1COCCN1C(=O)[C@H]1CCc2c(sc3ncnc(Nc4cc5cn[nH]c5cc4F)c23)C1` [Example 227, {(7S)-4-[(6-Fluoro-1H-indazol-5-yl)amino]-5,6,7,8-tetrahydro[1]benzothieno[2,3-d]pyrimidin-7-yl}[(3S)-3-methylmorpholin-4-yl]methanone]: 7 nM.
On to `CN(C)C(=O)[C@H]1CCc2c(sc3ncnc(Nc4cc5cn[nH]c5cc4F)c23)C1` [Example 228, (7S)-4-[(6-Fluoro-1H-indazol-5-yl)amino]-N,N-dimethyl-5,6,7,8-tetrahydro[1]benzothieno[2,3-d]pyrimidine-7-carboxamide], for which the IC50 amounted to 6.1 nM.
Then `C[C@H]1CN(C(=O)[C@H]2CCc3c(sc4ncnc(Nc5cc6cn[nH]c6cc5Cl)c34)C2)C[C@H](C)O1` [Example 229, {(7S)-4-[(6-Chloro-1H-indazol-5-yl)amino]-5,6,7,8-tetrahydro[1]benzothieno[2,3-d]pyrimidin-7-yl}[(2S,6S)-2,6-dimethylmorpholin-4-yl]methanone], with 4.3 nM; and `COCCN(C)C(=O)[C@H]1CCc2c(sc3ncnc(Nc4cc5cn[nH]c5cc4Cl)c23)C1` [Example 230, (7S)-4-[(6-Chloro-1H-indazol-5-yl)amino]-N-(2-methoxyethyl)-N-methyl-5,6,7,8-tetrahydro[1]benzothieno[2,3-d]pyrimidine-7-carboxamide], with 2.5 nM; and `O=C([C@H]1CCc2c(sc3ncnc(Nc4cc5cn[nH]c5cc4Cl)c23)C1)N1CCOCC1` [Example 231, {(7S)-4-[(6-Chloro-1H-indazol-5-yl)amino]-5,6,7,8-tetrahydro[1]benzothieno[2,3-d]pyrimidin-7-yl}(morpholin-4-yl)methanone], with 4 nM.
Then `C[C@@H]1COCCN1C(=O)[C@H]1CCc2c(sc3ncnc(Nc4cc5cn[nH]c5cc4Br)c23)C1` [Example 232, {(7S)-4-[(6-Bromo-1H-indazol-5-yl)amino]-5,6,7,8-tetrahydro[1]benzothieno[2,3-d]pyrimidin-7-yl}[(3R)-3-methylmorpholin-4-yl]methanone], with 5.8 nM.
